# In paper PMC4685510, “A Cell Biologist’s Field Guide to Aurora Kinase Inhibitors” (Frontiers in Oncology, 2015):
# Where two headings read alike, the source gives them in different places.
# Experiments:
# Experiment in all cases: biochemical
# Format in all cases: biochemical
# [1] = molecular target: T1, 363 human kinases (including Aurora A/B/C) (Homo sapiens, UniProt Q8TF76); conditions: Haspin; 100 nM; read-out: % Enzyme Activity (relative to DMSO controls)
# T1 sequence (Q8TF76 1-798): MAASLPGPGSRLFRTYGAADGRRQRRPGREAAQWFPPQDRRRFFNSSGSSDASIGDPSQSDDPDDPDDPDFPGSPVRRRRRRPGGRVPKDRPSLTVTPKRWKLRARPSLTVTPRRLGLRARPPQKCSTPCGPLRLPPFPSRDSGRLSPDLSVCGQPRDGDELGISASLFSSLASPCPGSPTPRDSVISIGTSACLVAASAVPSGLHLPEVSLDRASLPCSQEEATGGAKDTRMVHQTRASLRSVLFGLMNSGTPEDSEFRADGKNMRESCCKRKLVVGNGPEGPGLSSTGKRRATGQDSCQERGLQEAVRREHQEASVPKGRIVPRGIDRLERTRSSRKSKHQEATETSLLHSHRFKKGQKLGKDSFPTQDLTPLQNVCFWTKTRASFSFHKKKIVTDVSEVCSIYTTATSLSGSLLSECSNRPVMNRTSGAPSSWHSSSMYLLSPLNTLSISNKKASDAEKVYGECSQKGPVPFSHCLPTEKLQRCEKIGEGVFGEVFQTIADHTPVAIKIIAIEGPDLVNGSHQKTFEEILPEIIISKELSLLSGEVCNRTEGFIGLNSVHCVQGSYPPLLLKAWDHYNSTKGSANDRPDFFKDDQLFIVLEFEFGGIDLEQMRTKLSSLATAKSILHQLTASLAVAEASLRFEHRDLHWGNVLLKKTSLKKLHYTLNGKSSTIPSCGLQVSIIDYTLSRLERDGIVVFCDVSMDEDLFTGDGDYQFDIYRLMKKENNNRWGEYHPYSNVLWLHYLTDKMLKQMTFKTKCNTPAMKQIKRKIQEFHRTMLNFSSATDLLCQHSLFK
# Source text: (§1) However, the Aurora A/B selectivity ratios derived from our in vitro and in vivo data can be compared to prioritize inhibitors.
# [2] = molecular target: 363 human kinases (including Aurora A/B/C) (Homo sapiens, UniProt P24941); conditions: 100 nM, read-out: % Enzyme Activity (relative to DMSO controls)
# Source text: as §1
# [3] = molecular target: 363 human kinases (including Aurora A/B/C) (Homo sapiens, UniProt Q9UKE5); conditions: TNIK; 100 nM; read-out: % Enzyme Activity (relative to DMSO controls)
# Source text: as §1
# [4] = molecular target: 363 human kinases (including Aurora A/B/C) (Homo sapiens, UniProt Q00535); conditions: 100 nM, read-out: % Enzyme Activity (relative to DMSO controls)
# 363 human kinases (including Aurora A/B/C) (Homo sapiens, UniProt Q00535), sequence (Q00535 whole entry): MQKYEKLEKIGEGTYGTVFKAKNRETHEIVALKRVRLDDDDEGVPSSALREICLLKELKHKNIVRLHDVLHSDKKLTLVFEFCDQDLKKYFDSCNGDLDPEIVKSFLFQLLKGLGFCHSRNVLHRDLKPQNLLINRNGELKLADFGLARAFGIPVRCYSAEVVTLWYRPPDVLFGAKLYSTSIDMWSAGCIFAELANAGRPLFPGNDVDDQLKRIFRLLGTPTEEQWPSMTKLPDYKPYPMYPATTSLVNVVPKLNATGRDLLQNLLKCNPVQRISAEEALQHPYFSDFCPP
# Source text: as §1
# [5] = molecular target: 363 human kinases (including Aurora A/B/C) (Homo sapiens, UniProt Q14289); conditions: PYK2; 100 nM; read-out: % Enzyme Activity (relative to DMSO controls)
# 363 human kinases (including Aurora A/B/C) (Homo sapiens, UniProt Q14289), sequence (Q14289 whole entry): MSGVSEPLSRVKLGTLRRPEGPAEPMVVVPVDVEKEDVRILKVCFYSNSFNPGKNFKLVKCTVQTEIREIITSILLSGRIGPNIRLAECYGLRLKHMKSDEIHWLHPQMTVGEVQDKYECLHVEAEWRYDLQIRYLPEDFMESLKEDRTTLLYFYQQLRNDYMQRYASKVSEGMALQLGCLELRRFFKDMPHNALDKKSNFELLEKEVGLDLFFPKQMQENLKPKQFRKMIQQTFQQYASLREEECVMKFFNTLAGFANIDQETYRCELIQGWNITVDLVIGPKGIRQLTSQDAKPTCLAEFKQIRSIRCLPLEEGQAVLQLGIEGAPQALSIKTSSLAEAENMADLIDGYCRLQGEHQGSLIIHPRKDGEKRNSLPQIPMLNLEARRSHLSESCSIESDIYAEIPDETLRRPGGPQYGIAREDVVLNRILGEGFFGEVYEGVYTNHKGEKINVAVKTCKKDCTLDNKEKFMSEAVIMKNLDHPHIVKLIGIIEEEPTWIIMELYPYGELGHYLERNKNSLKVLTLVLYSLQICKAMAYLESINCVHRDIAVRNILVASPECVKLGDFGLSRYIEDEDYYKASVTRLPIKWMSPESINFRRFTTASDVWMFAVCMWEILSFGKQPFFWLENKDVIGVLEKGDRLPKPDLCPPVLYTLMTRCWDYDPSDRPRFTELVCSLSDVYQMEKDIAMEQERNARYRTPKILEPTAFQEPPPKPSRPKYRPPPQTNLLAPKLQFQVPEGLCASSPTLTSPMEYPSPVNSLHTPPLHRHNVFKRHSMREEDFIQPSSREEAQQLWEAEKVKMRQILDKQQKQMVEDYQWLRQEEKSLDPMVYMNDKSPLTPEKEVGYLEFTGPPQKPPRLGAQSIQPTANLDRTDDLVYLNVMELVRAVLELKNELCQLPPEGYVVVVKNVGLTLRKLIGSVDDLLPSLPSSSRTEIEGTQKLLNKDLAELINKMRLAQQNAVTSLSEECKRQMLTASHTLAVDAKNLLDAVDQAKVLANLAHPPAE
# Source text: as §1
# [6] = molecular target: 363 human kinases (including Aurora A/B/C) (Homo sapiens, UniProt Q8TDX7); conditions: NEK7; 100 nM; read-out: % Enzyme Activity (relative to DMSO controls)
# 363 human kinases (including Aurora A/B/C) (Homo sapiens, UniProt Q8TDX7), sequence (Q8TDX7 whole entry): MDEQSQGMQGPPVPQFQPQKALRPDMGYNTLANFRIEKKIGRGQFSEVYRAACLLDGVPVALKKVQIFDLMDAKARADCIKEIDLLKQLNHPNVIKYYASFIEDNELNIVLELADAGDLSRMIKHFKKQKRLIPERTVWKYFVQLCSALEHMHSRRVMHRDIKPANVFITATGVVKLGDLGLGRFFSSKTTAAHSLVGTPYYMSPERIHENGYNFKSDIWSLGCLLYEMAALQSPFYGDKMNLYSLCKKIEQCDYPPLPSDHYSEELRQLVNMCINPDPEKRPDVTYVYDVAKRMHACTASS
# Source text: as §1
# [7] = molecular target: 363 human kinases (including Aurora A/B/C) (Homo sapiens, UniProt Q13177); conditions: PAK2; 100 nM; read-out: % Enzyme Activity (relative to DMSO controls)
# 363 human kinases (including Aurora A/B/C) (Homo sapiens, UniProt Q13177), sequence (Q13177 whole entry): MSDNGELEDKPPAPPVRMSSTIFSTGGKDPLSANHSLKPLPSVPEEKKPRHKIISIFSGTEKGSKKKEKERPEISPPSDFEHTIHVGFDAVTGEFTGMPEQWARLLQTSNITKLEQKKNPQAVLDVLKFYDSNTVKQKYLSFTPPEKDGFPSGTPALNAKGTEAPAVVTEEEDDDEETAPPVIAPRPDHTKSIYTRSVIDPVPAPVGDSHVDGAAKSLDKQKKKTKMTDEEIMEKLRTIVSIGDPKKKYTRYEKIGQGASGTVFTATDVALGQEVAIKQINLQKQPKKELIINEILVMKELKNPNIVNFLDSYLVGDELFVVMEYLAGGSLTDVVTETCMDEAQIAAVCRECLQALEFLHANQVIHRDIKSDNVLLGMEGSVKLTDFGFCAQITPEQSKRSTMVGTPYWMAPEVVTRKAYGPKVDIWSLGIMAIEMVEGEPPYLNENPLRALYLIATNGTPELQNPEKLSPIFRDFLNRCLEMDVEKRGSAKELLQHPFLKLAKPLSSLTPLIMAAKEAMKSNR
# Source text: as §1
# [8] = molecular target: 363 human kinases (including Aurora A/B/C) (Homo sapiens, UniProt Q08345); conditions: DDR1; [ATP] 100 µM; 100 nM; read-out: % Enzyme Activity (relative to DMSO controls)
# Source text: as §1
# [9] = molecular target: 363 human kinases (including Aurora A/B/C) (Homo sapiens, UniProt Q9BYP7); conditions: WNK3; 100 nM; read-out: % Enzyme Activity (relative to DMSO controls)
# Source text: as §1
# [10] = molecular target: 363 human kinases (including Aurora A/B/C) (Homo sapiens, UniProt P09619); conditions: PDGFRb; 100 nM; read-out: % Enzyme Activity (relative to DMSO controls)
# 363 human kinases (including Aurora A/B/C) (Homo sapiens, UniProt P09619), sequence (P09619 33-1106): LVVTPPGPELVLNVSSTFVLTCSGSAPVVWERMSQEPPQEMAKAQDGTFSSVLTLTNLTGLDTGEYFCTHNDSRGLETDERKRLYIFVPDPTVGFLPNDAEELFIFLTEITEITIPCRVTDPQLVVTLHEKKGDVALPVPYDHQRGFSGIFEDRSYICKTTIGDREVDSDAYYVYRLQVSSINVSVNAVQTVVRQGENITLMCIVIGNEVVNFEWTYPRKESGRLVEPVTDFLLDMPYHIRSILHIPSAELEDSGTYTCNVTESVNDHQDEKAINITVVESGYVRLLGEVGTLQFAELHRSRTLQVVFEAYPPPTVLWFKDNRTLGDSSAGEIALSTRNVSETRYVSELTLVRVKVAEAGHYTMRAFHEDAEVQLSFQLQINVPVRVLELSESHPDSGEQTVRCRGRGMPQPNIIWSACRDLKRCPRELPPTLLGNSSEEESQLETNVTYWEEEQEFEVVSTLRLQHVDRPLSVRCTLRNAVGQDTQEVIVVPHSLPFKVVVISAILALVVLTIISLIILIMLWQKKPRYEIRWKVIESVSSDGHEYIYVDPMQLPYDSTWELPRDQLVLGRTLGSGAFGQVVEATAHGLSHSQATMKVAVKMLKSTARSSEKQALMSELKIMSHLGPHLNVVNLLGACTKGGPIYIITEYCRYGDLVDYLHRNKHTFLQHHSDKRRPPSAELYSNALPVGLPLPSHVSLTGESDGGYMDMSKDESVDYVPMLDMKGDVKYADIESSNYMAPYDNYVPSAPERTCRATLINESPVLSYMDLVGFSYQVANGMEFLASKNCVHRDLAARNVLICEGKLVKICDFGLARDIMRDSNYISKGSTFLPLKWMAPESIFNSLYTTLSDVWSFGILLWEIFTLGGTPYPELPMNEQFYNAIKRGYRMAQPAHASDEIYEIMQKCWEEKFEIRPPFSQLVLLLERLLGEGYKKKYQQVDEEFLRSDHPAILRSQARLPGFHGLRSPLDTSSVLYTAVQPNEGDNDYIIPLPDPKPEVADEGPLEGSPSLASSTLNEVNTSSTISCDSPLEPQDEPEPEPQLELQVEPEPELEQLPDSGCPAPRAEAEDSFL
# Source text: as §1
# [11] = molecular target: 363 human kinases (including Aurora A/B/C) (Homo sapiens, UniProt Q06187); conditions: BTK; [ATP] 50 µM; 100 nM; read-out: % Enzyme Activity (relative to DMSO controls)
# Source text: as §1
# [12] = molecular target: T2, 363 human kinases (including Aurora A/B/C) (Homo sapiens, UniProt Q14164); conditions: read-out: % Enzyme Activity (relative to DMSO controls), IKKe/IKBKE; 100 nM
# T2 sequence (Q14164 1-716): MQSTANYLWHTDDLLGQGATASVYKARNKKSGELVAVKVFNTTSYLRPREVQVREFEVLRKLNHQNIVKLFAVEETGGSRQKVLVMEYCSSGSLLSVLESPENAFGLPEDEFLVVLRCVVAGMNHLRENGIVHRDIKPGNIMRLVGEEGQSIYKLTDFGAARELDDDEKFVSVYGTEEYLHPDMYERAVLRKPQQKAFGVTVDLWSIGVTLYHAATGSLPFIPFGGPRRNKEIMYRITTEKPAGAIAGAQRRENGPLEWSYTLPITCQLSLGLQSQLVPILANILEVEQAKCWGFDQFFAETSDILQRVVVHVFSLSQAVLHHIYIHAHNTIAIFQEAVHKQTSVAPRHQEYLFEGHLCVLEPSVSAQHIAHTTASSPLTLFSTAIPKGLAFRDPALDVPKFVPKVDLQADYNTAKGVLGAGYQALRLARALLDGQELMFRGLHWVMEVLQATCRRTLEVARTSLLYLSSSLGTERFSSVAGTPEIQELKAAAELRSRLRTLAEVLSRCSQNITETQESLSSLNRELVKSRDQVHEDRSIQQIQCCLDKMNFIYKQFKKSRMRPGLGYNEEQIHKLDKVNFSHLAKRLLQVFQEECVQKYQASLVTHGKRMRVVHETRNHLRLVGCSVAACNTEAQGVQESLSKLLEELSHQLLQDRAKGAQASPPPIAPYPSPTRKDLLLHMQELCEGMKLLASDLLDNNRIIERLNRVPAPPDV
# Source text: as §1
# [13] = molecular target: 363 human kinases (including Aurora A/B/C) (Homo sapiens, UniProt P49840); conditions: GSK3a; 100 nM; read-out: % Enzyme Activity (relative to DMSO controls)
# 363 human kinases (including Aurora A/B/C) (Homo sapiens, UniProt P49840), sequence (P49840 whole entry): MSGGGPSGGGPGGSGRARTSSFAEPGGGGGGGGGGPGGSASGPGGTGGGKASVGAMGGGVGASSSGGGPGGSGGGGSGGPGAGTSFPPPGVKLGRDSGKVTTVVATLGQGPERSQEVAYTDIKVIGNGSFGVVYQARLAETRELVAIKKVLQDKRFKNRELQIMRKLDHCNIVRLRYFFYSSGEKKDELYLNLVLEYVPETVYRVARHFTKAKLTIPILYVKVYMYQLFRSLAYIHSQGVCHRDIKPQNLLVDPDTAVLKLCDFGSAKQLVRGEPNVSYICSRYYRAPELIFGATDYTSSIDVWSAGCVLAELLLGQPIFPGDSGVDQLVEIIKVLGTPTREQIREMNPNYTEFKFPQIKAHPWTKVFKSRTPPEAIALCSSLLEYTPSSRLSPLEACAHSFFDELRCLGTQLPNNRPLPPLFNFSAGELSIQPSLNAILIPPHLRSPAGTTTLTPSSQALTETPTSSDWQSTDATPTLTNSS
# Source text: as §1
# [14] = molecular target: 363 human kinases (including Aurora A/B/C) (Homo sapiens, UniProt P07948); conditions: LYN; 100 nM; read-out: % Enzyme Activity (relative to DMSO controls)
# Source text: as §1
# [15] = molecular target: 363 human kinases (including Aurora A/B/C) (Homo sapiens, UniProt P07949); conditions: RET; 100 nM; read-out: % Enzyme Activity (relative to DMSO controls)
# 363 human kinases (including Aurora A/B/C) (Homo sapiens, UniProt P07949), sequence (P07949 29-1114): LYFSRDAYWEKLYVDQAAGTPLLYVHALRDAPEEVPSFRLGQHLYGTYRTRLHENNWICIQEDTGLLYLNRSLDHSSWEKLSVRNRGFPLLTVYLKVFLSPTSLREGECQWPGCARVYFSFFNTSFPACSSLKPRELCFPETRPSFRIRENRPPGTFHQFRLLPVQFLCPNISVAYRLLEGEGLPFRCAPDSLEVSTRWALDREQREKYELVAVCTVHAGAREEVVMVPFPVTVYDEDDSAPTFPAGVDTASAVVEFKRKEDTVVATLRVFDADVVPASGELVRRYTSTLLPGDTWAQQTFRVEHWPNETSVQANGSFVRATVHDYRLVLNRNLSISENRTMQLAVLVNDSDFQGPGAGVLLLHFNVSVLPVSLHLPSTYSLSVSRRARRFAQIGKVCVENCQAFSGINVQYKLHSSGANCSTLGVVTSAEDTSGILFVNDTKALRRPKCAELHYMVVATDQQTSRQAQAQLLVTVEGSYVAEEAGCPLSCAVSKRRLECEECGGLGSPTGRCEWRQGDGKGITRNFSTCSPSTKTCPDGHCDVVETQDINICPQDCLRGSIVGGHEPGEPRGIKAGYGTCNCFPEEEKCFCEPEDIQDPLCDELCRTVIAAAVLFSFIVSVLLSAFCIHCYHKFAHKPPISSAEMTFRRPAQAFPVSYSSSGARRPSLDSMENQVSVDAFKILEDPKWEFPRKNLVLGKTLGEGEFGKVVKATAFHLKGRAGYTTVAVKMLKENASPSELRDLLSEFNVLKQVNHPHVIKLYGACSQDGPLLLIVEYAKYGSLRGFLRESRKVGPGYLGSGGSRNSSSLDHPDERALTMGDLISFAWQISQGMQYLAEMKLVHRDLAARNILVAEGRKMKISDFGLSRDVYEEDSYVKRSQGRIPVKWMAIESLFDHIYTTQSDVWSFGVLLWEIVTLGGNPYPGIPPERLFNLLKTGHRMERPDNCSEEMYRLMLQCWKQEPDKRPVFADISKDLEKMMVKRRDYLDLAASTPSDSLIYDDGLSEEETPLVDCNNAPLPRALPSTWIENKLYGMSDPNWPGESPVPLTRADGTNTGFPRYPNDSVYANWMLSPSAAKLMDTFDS
# Source text: as §1
smiles,measurement,setting,value
CCn1cc(-c2ccnc3[nH]c(-c4cccc(CN(C)C)c4)cc23)c(-c2ccc(NC(=O)N(C)C)cc2)n1 [GSK1070916],remaining activity at 0.1 µM,[1],86.9%
same,remaining activity at 0.1 µM,"[2]; CDK2/Cyclin A1, [ATP] 100 µM",89.8%
same,remaining activity at 0.1 µM,"[2]; CDK2/cyclin A, [ATP] 100 µM",104%
same,remaining activity at 0.1 µM,"[2]; CDK2/cyclin E, [ATP] 5 µM",93%
same,remaining activity at 0.1 µM,"[2]; CDK2/cyclin O, [ATP] 30 µM",94.7%
same,remaining activity at 0.1 µM,[3],57.3%
same,remaining activity at 0.1 µM,"[4]; CDK5/p25, [ATP] 50 µM",91.8%
same,remaining activity at 0.1 µM,"[4]; CDK5/p35, [ATP] 100 µM",111%
same,remaining activity at 0.1 µM,[5],95.3%
same,remaining activity at 0.1 µM,[6],102%
same,remaining activity at 0.1 µM,[7],106%
same,remaining activity at 0.1 µM,[8],26.2%
same,remaining activity at 0.1 µM,[9],110%
same,remaining activity at 0.1 µM,[10],90.4%
same,remaining activity at 0.1 µM,[11],102%
same,remaining activity at 0.1 µM,[12],84.4%
same,remaining activity at 0.1 µM,[13],99%
same,remaining activity at 0.1 µM,[14],79.2%
same,remaining activity at 0.1 µM,[15],97.8%
